Reference: the Kinase Knowledgebase extract (Sharma et al. 2016)
pIC50: −log10 of the molar value.

target: MAPK14 (human) (UniProt Q16539); assay: Cell-Based Assay; settings: hct-116
Sequence (Q16539 whole entry, looked up): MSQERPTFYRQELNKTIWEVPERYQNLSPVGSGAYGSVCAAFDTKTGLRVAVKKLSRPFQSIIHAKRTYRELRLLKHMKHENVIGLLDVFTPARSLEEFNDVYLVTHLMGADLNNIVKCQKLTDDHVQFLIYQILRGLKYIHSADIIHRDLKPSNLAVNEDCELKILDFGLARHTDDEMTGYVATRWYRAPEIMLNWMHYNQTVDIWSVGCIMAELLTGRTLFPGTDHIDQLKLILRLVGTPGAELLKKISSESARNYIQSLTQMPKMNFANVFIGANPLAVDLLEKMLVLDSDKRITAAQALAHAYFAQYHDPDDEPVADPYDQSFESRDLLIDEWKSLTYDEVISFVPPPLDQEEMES

pIC50	SMILES
6.00 to 7.00	Nc1ncc(-c2cnn([C@H]3CC[C@H](O)CC3)c2)c2cc(-c3c(F)ccc4cnsc34)oc12
6.00 to 7.00	CN1CCC(n2cc(-c3cnc(N)c4oc(-c5cccc6cnccc56)cc34)cn2)CC1
6.00 to 7.00	Nc1ncc(-c2cnn(C3CNC3)c2)c2cc(-c3csc4cnccc34)oc12
< 5.00	CC(=O)N1CCC(n2cc(-c3cnc(N)c4oc(-c5ccc6[nH]nnc6c5)cc34)cn2)CC1
6.00 to 7.00	Nc1ncc(-c2cnn(C3CCN(C(=O)C4CC4)CC3)c2)c2cc(-c3cccc4cnccc34)oc12
6.00 to 7.00	CC(=O)N1CCC(n2cc(-c3cnc(N)c4oc(-c5cccc6cnccc56)cc34)cn2)CC1
6.00 to 7.00	Nc1ncc(-c2cnn(C3CCNCC3)c2)c2cc(-c3ccc4[nH]ncc4c3)oc12
6.00 to 7.00	Nc1ncc(-c2cnn(C3CC4(C3)OCCO4)c2)c2cc(-c3csc4cnccc34)oc12
6.00 to 7.00	CC(=O)N1CCC(n2cc(-c3cnc(N)c4oc(-c5ccc6[nH]ccc6c5)cc34)cn2)CC1
6.00 to 7.00	Cn1cc(-c2cnc(N)c3oc(-c4csc5cnccc45)cc23)cn1
6.00 to 7.00	COCC(=O)N1CCC(n2cc(-c3cnc(N)c4oc(-c5cccc6cnccc56)cc34)cn2)CC1
6.00 to 7.00	CC(=O)N1CCC(n2cc(-c3cnc(N)c4oc(-c5ccc6sccc6c5)cc34)cn2)CC1
6.00 to 7.00	CCN1CCC(n2cc(-c3cnc(N)c4oc(-c5cccc6cnccc56)cc34)cn2)CC1
≥ 7.00	Nc1ncc(-c2cnn([C@H]3CC[C@H](O)CC3)c2)c2cc(-c3csc4cnccc34)oc12
< 5.00	CC(=O)N1CCC(n2cc(-c3cnc(N)c4oc(-c5ccc6ncn(C)c6c5)cc34)cn2)CC1
≥ 7.00	CNc1ncc(-c2cnn(C3CCN(C(C)=O)CC3)c2)c2cc(-c3csc4cnccc34)oc12
6.00 to 7.00	CC(=O)N1CCC(n2cc(-c3cnc(N)c4oc(-c5cccn6ccnc56)cc34)cn2)CC1
6.00 to 7.00	Nc1ncc(-c2cnn([C@H]3CC[C@H](O)CC3)c2)c2cc(-c3cccc4cnsc34)oc12
6.00 to 7.00	CC(=O)N1CC(n2cc(-c3cnc(N)c4oc(-c5csc6cnccc56)cc34)cn2)C1
6.00 to 7.00	CC(=O)N1CCC(n2cc(-c3cnc(N)c4oc(-c5ccc6scnc6c5)cc34)cn2)CC1
6.00 to 7.00	CS(=O)(=O)N1CCC(n2cc(-c3cnc(N)c4oc(-c5cccc6cnccc56)cc34)cn2)CC1

pIC50	SMILES
6.00 to 7.00	Nc1ncc(-c2cnn(C3CCNCC3)c2)c2cc(-c3csc4cnccc34)oc12
6.00 to 7.00	CC(=O)N1CCC(n2cc(-c3cnc(N)c4oc(-c5ccc(O)cc5)cc34)cn2)CC1
6.00 to 7.00	CC(=O)N1CCC(n2cc(-c3cnc(N)c4oc(-c5cccc6ccnn56)cc34)cn2)CC1
6.00 to 7.00	Nc1ncc(-c2cnn(C3CC(=O)C3)c2)c2cc(-c3csc4cnccc34)oc12
6.00 to 7.00	CC(=O)N1CCC(n2cc(-c3cnc(N)c4oc(-c5cccc6[nH]ncc56)cc34)cn2)CC1
6.00 to 7.00	CC(=O)N1CCC(n2cc(-c3cnc(N)c4oc(-c5csc6cnccc56)cc34)cn2)CC1
≥ 7.00	Nc1ncc(-c2cnn([C@H]3CC[C@H](O)CC3)c2)c2cc(-c3cccc4nnsc34)oc12
6.00 to 7.00	CC(=O)N1CCC(n2cc(-c3cnc(N)c4oc(-c5ccc6occc6c5)cc34)cn2)CC1
6.00 to 7.00	CC(=O)N1CCC(n2cc(-c3cnc(N)c4oc(-c5cccc6[nH]ccc56)cc34)cn2)CC1
≥ 7.00	CC(=O)N1CCC(n2cc(-c3cnc(N)c4oc(-c5ccc6c(c5)CCO6)cc34)cn2)CC1
6.00 to 7.00	Nc1ncc(-c2cnn(C3CCN(C(=O)C4CCC4)CC3)c2)c2cc(-c3cccc4cnccc34)oc12
6.00 to 7.00	CSc1ccccc1-c1cc2c(-c3cnn(C4CCN(C(C)=O)CC4)c3)cnc(N)c2o1
6.00 to 7.00	CC(=O)N1CCC(n2cc(-c3cnc(N)c4oc(-c5cccc(C#N)c5)cc34)cn2)CC1
< 5.00	CC(=O)N1CCC(n2cc(-c3cnc(N)c4oc(-c5cnn(Cc6cccnc6)c5)cc34)cn2)CC1
6.00 to 7.00	Nc1ncc(-c2cnn([C@H]3CC[C@H](O)CC3)c2)c2cc(-c3ccc(F)c4cnsc34)oc12
6.00 to 7.00	CS(=O)(=O)CCN1CCC(n2cc(-c3cnc(N)c4oc(-c5cccc6cnccc56)cc34)cn2)CC1
6.00 to 7.00	CC(=O)N1CCC(n2cc(-c3cnc(N)c4oc(-c5cccc(OCC#N)c5)cc34)cn2)CC1
6.00 to 7.00	CC(=O)N1CCC(n2cc(-c3cnc(N)c4oc(-c5ccccc5CC#N)cc34)cn2)CC1
6.00 to 7.00	Nc1ncc(-c2cnn([C@@H]3C[C@@H](O)[C@@H](O)C3)c2)c2cc(-c3csc4cnccc34)oc12
≥ 7.00	CC(=O)N1CCC(n2cc(-c3cnc(N)c4oc(-c5cccc6cnsc56)cc34)cn2)CC1
< 5.00	CC(=O)N1CCC(n2cc(-c3cnc(N)c4oc(-c5ccc6c(c5)C(=O)NC6)cc34)cn2)CC1

pIC50	SMILES
≥ 7.00	CC(=O)N1CCC(n2cc(-c3cnc(N)c4oc(-c5cccc6nnsc56)cc34)cn2)CC1
6.00 to 7.00	Cn1cc(-c2cnc(N)c3oc(-c4c[nH]c5cnccc45)cc23)cn1
6.00 to 7.00	Cc1sc2cnccc2c1-c1cc2c(-c3cnn([C@H]4CC[C@H](O)CC4)c3)cnc(N)c2o1
6.00 to 7.00	Nc1ncc(-c2cnn([C@H]3CC[C@H](O)CC3)c2)c2cc(-c3cc(F)cc4cnsc34)oc12
6.00 to 7.00	COCCN1CCC(n2cc(-c3cnc(N)c4oc(-c5cccc6cnccc56)cc34)cn2)CC1
6.00 to 7.00	CNc1ncc(-c2cnn(C3CCN(C(C)=O)CC3)c2)c2cc(-c3c[nH]c4cnccc34)oc12
< 5.00	CC(=O)N1CCC(n2cc(-c3cnc(N)c4oc(-c5ccc6[nH]nc(C#N)c6c5)cc34)cn2)CC1
6.00 to 7.00	CC(=O)N1CCC(n2cc(-c3cnc(N)c4oc(-c5csc6cncc(F)c56)cc34)cn2)CC1
< 5.00	CC(=O)N1CCC(n2cc(-c3cnc(N)c4oc(-c5ccc(S(C)(=O)=O)cc5)cc34)cn2)CC1
< 5.00	Nc1ncc(-c2cnn(C3CCNCC3)c2)c2cc(-c3ccc4[nH][nH]c(=O)c4c3)oc12
6.00 to 7.00	Nc1ncc(-c2cnn([C@H]3CC[C@H](O)CC3)c2)c2cc(-c3cncc4cnsc34)oc12
6.00 to 7.00	CC(=O)N1CCC(n2cc(-c3cnc(N)c4oc(-c5c[nH]c6cc(C#N)ccc56)cc34)cn2)CC1
6.00 to 7.00	CC(=O)N1CCC(n2cc(-c3cnc(N)c4oc(-c5cccc([N+](=O)[O-])c5C)cc34)cn2)CC1
< 5.00	CC(=O)N1CCC(n2cc(-c3cnc(N)c4oc(-c5cn[nH]c5)cc34)cn2)CC1
6.00 to 7.00	CC(C)N1CCC(n2cc(-c3cnc(N)c4oc(-c5cccc6cnccc56)cc34)cn2)CC1
6.00 to 7.00	CC(=O)N1CCC(n2cc(-c3cnc(N)c4oc(-c5cccc([N+](=O)[O-])c5)cc34)cn2)CC1
6.00 to 7.00	CC(C)n1cc(-c2cnc(N)c3oc(-c4cccc5cnccc45)cc23)cn1
< 5.00	CC(=O)N1CCC(n2cc(-c3cnc(N)c4oc(-c5ccc6c(c5)CNC6=O)cc34)cn2)CC1
6.00 to 7.00	CC(=O)N1CCC(n2cc(-c3cnc(N)c4oc(-c5ccc(O)cc5C)cc34)cn2)CC1
6.00 to 7.00	Nc1ncc(-c2cnn(C3CCN(CCO)CC3)c2)c2cc(-c3cccc4cnccc34)oc12
≥ 7.00	CNc1ncc(-c2cnn([C@H]3CC[C@H](O)CC3)c2)c2cc(-c3csc4cnccc34)oc12

pIC50	SMILES
≥ 7.00	CC(C)n1cc(-c2cnc(N)c3oc(-c4c[nH]c5cnccc45)cc23)cn1
6.00 to 7.00	CC(=O)N1CCC(n2cc(-c3cnc(N)c4oc(-c5cccc6c5OC(F)(F)O6)cc34)cn2)CC1
6.00 to 7.00	C[C@]1(O)CC[C@@H](n2cc(-c3cnc(N)c4oc(-c5cccc6cnccc56)cc34)cn2)CC1
6.00 to 7.00	Cn1cc(-c2cnc(N)c3oc(-c4cccc5cnccc45)cc23)cn1
6.00 to 7.00	Nc1ncc(-c2cnn(C3CCNCC3)c2)c2cc(-c3cccc4cnsc34)oc12
6.00 to 7.00	CCSc1ccccc1-c1cc2c(-c3cnn(C4CCN(C(C)=O)CC4)c3)cnc(N)c2o1
6.00 to 7.00	Nc1ncc(-c2cnn(C3CCCCC3)c2)c2cc(-c3c[nH]c4cnccc34)oc12
6.00 to 7.00	CC(=O)N1CCC(n2cc(-c3cnc(N)c4oc(-c5cncc6cnsc56)cc34)cn2)CC1
6.00 to 7.00	Nc1ncc(-c2cn[nH]c2)c2cc(-c3cccc4cnccc34)oc12
6.00 to 7.00	CC(C)(C)OC(=O)N1CCC(n2cc(-c3cnc(N)c4oc(-c5csc6cnccc56)cc34)cn2)CC1
6.00 to 7.00	Nc1ncc(-c2cnn(C3CCN(CC(F)(F)F)CC3)c2)c2cc(-c3cccc4cnccc34)oc12
6.00 to 7.00	Nc1ncc(-c2cnn([C@H]3CC[C@H](O)CC3)c2)c2cc(-c3cccc4cnccc34)oc12
≥ 7.00	CC(C)C(=O)N1CCC(n2cc(-c3cnc(N)c4oc(-c5cccc6cnccc56)cc34)cn2)CC1
6.00 to 7.00	CC(=O)N1CCC(n2cc(-c3cnc(N)c4oc(-c5cccc(O)c5)cc34)cn2)CC1
6.00 to 7.00	CC(=O)N1CCC(n2cc(-c3cnc(N)c4oc(-c5c[nH]c6cc(F)ccc56)cc34)cn2)CC1
6.00 to 7.00	Nc1ncc(-c2cnn(C3CCNCC3)c2)c2cc(-c3cccc4cnccc34)oc12
6.00 to 7.00	CC(=O)N1CCC(n2cc(-c3cnc(N)c4oc(-c5csc6ccccc56)cc34)cn2)CC1
≥ 7.00	Nc1ncc(-c2cnn([C@H]3CC[C@H](O)CC3)c2)c2cc(-c3csc4cnc(F)cc34)oc12

SMILES	pIC50
Nc1ncc(-c2cnn(C3CCN(CCF)CC3)c2)c2cc(-c3cccc4cnccc34)oc12	6.00 to 7.00
